The values that follow come from PubChem BioAssay (NCI).

Structures are written as SMILES.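 Following 48 hours of exposure in 96-well plates, responses at five concentrations were used to interpolate endpoints linearly. At the GI50, growth is halved. The concentration for full growth arrest is given as TGI.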 Some results are limits rather than exact numbers.

Some test systems named below: SF-268 CNS; KM12 colon; SK-OV-3 ovarian; M14 melanoma; NCI-H522 lung; CAKI-1 renal; DU-145 prostate; UACC-62 melanoma; HS 578T breast; NCI-H23 lung.
Assay in all cases: DTP human tumour cell line panel, 48 h

A word on the GI50: it is the concentration giving 50% growth inhibition. By TGI is commonly meant the concentration giving total growth inhibition. Lower therefore signals greater sensitivity of the cells. With `CCC[C@H](N[C@@H]1CCc2cc(F)cc(F)c2C1)C(=O)Nc1cn(C(C)(C)CNCC(C)(C)C)cn1`, the GI50 with SF-268 CNS was 20.4 µM; with KM12 colon, 24.1 µM; in the experiment with SK-OV-3 ovarian it was 26.3 µM; in the experiment with M14 melanoma it was 10.5 µM; in the experiment with NCI-H522 lung, 15.7 µM; with CAKI-1 renal it was 5.94 µM. In addition, the GI50 in the experiment with DU-145 prostate was 29.7 µM; with UACC-62 melanoma, 15.6 µM; in the experiment on HS 578T breast, 15.3 µM; in the experiment with NCI-H23 lung it was 17.3 µM. For the same compound, the TGI is above 100 µM in the experiment with SF-268 CNS; above 88.7 µM with KM12 colon; above 100 µM with SK-OV-3 ovarian; 26.9 µM with M14 melanoma; 56.1 µM in the experiment with NCI-H522 lung; 29 µM in the experiment on CAKI-1 renal. Besides, the concentration for total growth inhibition (TGI) in the experiment on DU-145 prostate was above 100 µM; in the experiment with UACC-62 melanoma, 34.1 µM; in the experiment with HS 578T breast, 64.4 µM; in the experiment on NCI-H23 lung it was above 89.9 µM.
For the compound `CCOC(=O)CC1(O)C=CC(=O)C=C1`, the GI50 in the experiment on SF-268 CNS is 0.57 µg/mL; with KM12 colon, 0.33 µg/mL; in the experiment on SK-OV-3 ovarian, 1.71 µg/mL; in the experiment with M14 melanoma, 1.67 µg/mL; in the experiment on NCI-H522 lung, 0.515 µg/mL; in the experiment with CAKI-1 renal it was 2.62 µg/mL. Further, the GI50 in the experiment on DU-145 prostate is 2.54 µg/mL; with UACC-62 melanoma, 0.485 µg/mL; with HS 578T breast, 2.13 µg/mL; in the experiment on NCI-H23 lung it was 0.541 µg/mL. Moreover, the TGI in the experiment with SF-268 CNS was 1.92 µg/mL; in the experiment with KM12 colon it was 0.738 µg/mL; in the experiment with SK-OV-3 ovarian it was 5.53 µg/mL; in the experiment with M14 melanoma, 4.35 µg/mL; in the experiment on NCI-H522 lung it was 1.31 µg/mL; in the experiment on CAKI-1 renal, 4.71 µg/mL. Moreover, the total growth inhibition concentration (TGI) was 7.75 µg/mL in the experiment on DU-145 prostate, 1.7 µg/mL in the experiment on UACC-62 melanoma, 15.3 µg/mL in the experiment with HS 578T breast and 1.75 µg/mL with NCI-H23 lung.
Regarding `COc1ccc(-c2n[nH]nc2-c2csc3ccccc23)cc1OC`, the GI50 was 3.69 µM in the experiment on SF-268 CNS; 2.28 µM in the experiment on KM12 colon; 2.37 µM with SK-OV-3 ovarian; 1.95 µM with M14 melanoma; 0.601 µM in the experiment with NCI-H522 lung; 3.69 µM in the experiment with CAKI-1 renal. The GI50 in the experiment on DU-145 prostate was 3.77 µM; in the experiment on UACC-62 melanoma, 2.77 µM; in the experiment with HS 578T breast, 2.25 µM; in the experiment with NCI-H23 lung, 3.93 µM. Also, the TGI in the experiment on SF-268 CNS came out at 41.8 µM; in the experiment with KM12 colon, 24.1 µM; in the experiment with SK-OV-3 ovarian, 19.3 µM; in the experiment on M14 melanoma it was 15.6 µM; with NCI-H522 lung, 2.81 µM; with CAKI-1 renal, 34.2 µM. Besides, the total growth inhibition concentration (TGI) with DU-145 prostate was above 100 µM; in the experiment with UACC-62 melanoma, 22.2 µM; in the experiment on HS 578T breast it was 10.6 µM; in the experiment on NCI-H23 lung, 27.9 µM.
As for `CCc1c2c(nc3cc4c(cc13)OCO4)-c1cc3c(c(=O)n1C2)COC(=O)[C@@]3(CC)OC(=O)CN`, the GI50 in the experiment on SF-268 CNS is below 0.01 µM; with KM12 colon, below 0.0143 µM; in the experiment on SK-OV-3 ovarian, below 0.01 µM; in the experiment with M14 melanoma, below 0.01 µM; in the experiment on NCI-H522 lung it was below 0.01 µM; in the experiment on CAKI-1 renal, below 0.01 µM. In addition, the GI50 was below 0.01 µM in the experiment with DU-145 prostate, below 0.022 µM in the experiment with UACC-62 melanoma, 0.13 µM in the experiment on HS 578T breast and below 0.01 µM in the experiment on NCI-H23 lung. The total growth inhibition concentration (TGI) in the experiment on KM12 colon is 0.309 µM; with SK-OV-3 ovarian, below 0.0185 µM; with M14 melanoma, below 0.0247 µM; in the experiment with NCI-H522 lung it was 0.239 µM; in the experiment on DU-145 prostate it was 0.0426 µM; in the experiment on NCI-H23 lung, below 0.0158 µM.
Turning to `O=C(O)C1C2CC3C(OC(=O)C31)C2Br` (stereo unspecified), the TGI in the experiment with SF-268 CNS, in the experiment with KM12 colon, with SK-OV-3 ovarian, in the experiment with M14 melanoma, in the experiment with NCI-H522 lung and with CAKI-1 renal was above 100 µM throughout. Moreover, the concentration for total growth inhibition (TGI) with DU-145 prostate, with UACC-62 melanoma, in the experiment on HS 578T breast and in the experiment with NCI-H23 lung was above 100 µM throughout.
With `COc1cc(CSc2nc3ccc(C)cc3c(=O)n2Cc2ccccc2)cc(OC)c1OC`, the GI50 is 5.01 µM in the experiment on SF-268 CNS; 1.08 µM in the experiment on KM12 colon; 2.86 µM with SK-OV-3 ovarian; 3.08 µM in the experiment on M14 melanoma; 0.327 µM in the experiment with NCI-H522 lung; 2.48 µM in the experiment with CAKI-1 renal. The GI50 was 3.14 µM in the experiment with DU-145 prostate, 2.03 µM in the experiment with UACC-62 melanoma, 2.57 µM in the experiment on HS 578T breast and 4.4 µM with NCI-H23 lung. In addition, the concentration for total growth inhibition (TGI) with SF-268 CNS was above 100 µM; in the experiment on KM12 colon it was above 100 µM; in the experiment with SK-OV-3 ovarian it was 17.8 µM; in the experiment on M14 melanoma it was above 100 µM; in the experiment on NCI-H522 lung, 2.53 µM; in the experiment with CAKI-1 renal it was above 100 µM. Further, the TGI in the experiment on DU-145 prostate is 20.4 µM; with UACC-62 melanoma, 35.7 µM; in the experiment on HS 578T breast it was 48.8 µM; in the experiment on NCI-H23 lung, above 100 µM.
With `COc1cc(OC)c2c(=O)c(O)c(-c3ccc(OC)c(OC)c3)oc2c1`, the TGI in the experiment on SF-268 CNS is above 31.6 µM; with KM12 colon, above 100 µM; in the experiment with SK-OV-3 ovarian it was above 100 µM; in the experiment with M14 melanoma it was above 31.6 µM; with NCI-H522 lung, above 31.6 µM; in the experiment on CAKI-1 renal, above 31.4 µM. Further, the TGI with DU-145 prostate is above 100 µM; in the experiment with UACC-62 melanoma, above 31.6 µM; in the experiment with HS 578T breast, 70.9 µM; in the experiment with NCI-H23 lung, above 100 µM.
`CC(C)(C)c1ccc([I+]c2ccc(C(C)(C)C)cc2)cc1`: the GI50 with SF-268 CNS is 1.93 µM; with KM12 colon, 1.04 µM; with SK-OV-3 ovarian, 2.31 µM; in the experiment with M14 melanoma, 1.47 µM; with NCI-H522 lung, 1.39 µM; with CAKI-1 renal it was 8.3 µM. The GI50 in the experiment with DU-145 prostate is 1.7 µM; with UACC-62 melanoma it was 0.69 µM; with HS 578T breast, 1.98 µM; in the experiment on NCI-H23 lung, 1.69 µM. In addition, the TGI in the experiment with SF-268 CNS is 7.53 µM; in the experiment on KM12 colon it was 2.83 µM; in the experiment with SK-OV-3 ovarian, 6.75 µM; in the experiment on M14 melanoma, 4.09 µM; in the experiment on NCI-H522 lung it was 4.8 µM; in the experiment with CAKI-1 renal, 20.8 µM. In addition, the total growth inhibition concentration (TGI) in the experiment on DU-145 prostate was 3.53 µM; with UACC-62 melanoma it was 2.31 µM; in the experiment on HS 578T breast, 7.69 µM; in the experiment on NCI-H23 lung, 7.57 µM.
